Data from patent US10294202B2, “Pyrrolidinones as herbicides” (FMC Corporation, priority 2013, dated 2019).

Assays:
[1] = test system: corn; test: Test A pre-/postemergence herbicide test; assay type: in vivo, Zea mays; details: Postemergence
Outline: (§1)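 Seeds sown in loam soil/sand blend received a preemergence directed soil spray of test chemical in non-phytotoxic solvent with surfactant; postemergence plants (2–10 cm, one- to two-leaf stage) were sprayed with the same formulation. After about 10 days in greenhouse, injury was rated visually versus untreated controls, 0 (no effect) to 100 (complete control).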

[2] = test system: sedge, umbrella; test: Test C flooded paddy test; assay type: in vivo, Cyperus difformis; details: Flood
Outline: (§2)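 Ratings reflect visual comparison with controls on a 0–100 scale, where 100 is complete control. Compound is dosed into standing paddy water 3 cm deep over 2-leaf-stage plants, kept in the greenhouse 13 to 15 days.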

[3] = test system: kochia; test: Test A pre-/postemergence herbicide test; assay type: in vivo, Kochia scoparia; details: for Plant response rating, Kochia: 0 to 100 scale
Outline: as §1

[4] = test system: pigweed; test: Test A pre-/postemergence herbicide test; assay type: in vivo, Amaranthus retroflexus; details: for Plant response rating, Pigweed: 0 to 100 scale
Outline: as §1

[5] = test system: barnyardgrass; test: Test C flooded paddy test; assay type: in vivo, Echinochloa crus-galli; details: Flood
Outline: as §2

[6] = test system: ryegrass, Italian; test: Test A pre-/postemergence herbicide test; assay type: in vivo, Lolium multiflorum; details: for Plant response rating, Ryegrass, Italian: 0 to 100 scale
Outline: as §1

[7] = test system: blackgrass; test: Test A postemergence herbicide test; assay type: in vivo, Alopecurus myosuroides
Outline: (§3)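 Plants at the one- to two-leaf stage, 2–10 cm tall, grown in loam/sand pots, received postemergence sprays of the test chemicals. After about 10 days in the greenhouse, injury was scored visually against untreated controls on a 0–100 scale (0 none, 100 complete control).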

[8] = test system: rice; test: Test C flooded paddy test; assay type: in vivo, Oryza sativa; details: Flood
Outline: as §2

[9] = test system: ragweed; test: Test A pre-/postemergence herbicide test; assay type: in vivo, Ambrosia elatior; details: for Plant response rating, Ragweed: 0 to 100 scale
Outline: as §1

[10] = test system: wheat; test: Test A pre-/postemergence herbicide test; assay type: in vivo, Triticum aestivum; details: Postemergence; for Plant response rating, Wheat: 125 g ai/ha, 0 to 100 scale; for Wheat plant response rating (0 to 100 scale, 0 is no effect, 100 is complete control): 500 g ai/ha
Outline: as §1

[11] = test system: barnyardgrass; test: Test A pre-/postemergence herbicide test; assay type: in vivo, Echinochloa crus-galli
Outline: as §1

[12] = test system: ducksalad; test: Test C flooded paddy test; assay type: in vivo, Heteranthera limosa; details: Flood
Outline: as §2

[13] = test system: giant foxtail; test: Test A pre-/postemergence herbicide test; assay type: in vivo, Setaria faberii; details: for Plant response rating, Foxtail, Giant: 0 to 100 scale
Outline: as §1

[14] = test system: galium; test: Test A postemergence herbicide test; assay type: in vivo, Galium aparine; details: for Plant response rating, Galium: 125 g ai/ha, 0 to 100 scale; for Galium plant response rating (0 to 100 scale, 0 is no effect, 100 is complete control): 500 g ai/ha
Outline: as §3

[15] = 125 g ai/ha, 0 to 100 scale, 0 is no effect, 100 is complete control
[16] = 125 g ai/ha, scale of 0 to 100 where 0 is no effect and 100 is complete control, 13 to 15 days
[17] = 250 g ai/ha, scale of 0 to 100 where 0 is no effect and 100 is complete control, 13 to 15 days
[18] = 125 g ai/ha, visual rating, 0 no effect, 100 complete control, approximately 10 days, preemergence
[19] = Postemergence, 125 g ai/ha, 0 is no effect, 100 is complete control
[20] = preemergence, 500 g ai/ha, 0 is no effect and 100 is complete control
[21] = 0 is no effect, 100 is complete control
[22] = 125 g ai/ha, visual rating, 0 to 100 scale, 0 no effect, 100 complete control, approximately 10 days, preemergence
[23] = 125 g ai/ha, 0 to 100 scale, 0 no effect, 100 complete control
[24] = 500 g ai/ha, 0 to 100 scale (0 no effect, 100 complete control)
[25] = Postemergence, 125 g ai/ha, 0 no effect, 100 complete control
[26] = 0 no effect, 100 complete control

O=C1NCC(c2cccc(C(F)(F)F)c2)C1C(=O)Nc1cccc(F)c1 (racemic) [Compound 208]
Plant response rating, Corn [1, 15]: 0
Corn plant response rating (0 to 100 scale, 0 is no effect, 100 is complete control) ([1]; 500 g ai/ha): 50
Plant response rating, Sedge, Umbrella [2, 16]: 0
Plant response rating, Sedge, Umbrella [2, 17]: 0
Plant response rating, Sedge, Umbrella ([2]; 500 g ai/ha, scale 0 to 100): 0
Plant response rating, Sedge, Umbrella ([2]; 1000 g ai/ha, scale 0 to 100): 0
Plant response rating, Kochia [3, 18]: 0
Plant response rating, Kochia [3, 19]: 0
Kochia plant response rating (0 to 100 scale, 0 is no effect, 100 is complete control) ([3]; Postemergence, 500 g ai/ha): 60
Plant response rating, Kochia [3, 20]: 20
Plant response rating, Pigweed [4, 18]: 0
Plant response rating, Pigweed [4, 19]: 0
Pigweed plant response rating (0 to 100 scale, 0 is no effect, 100 is complete control) ([4]; Postemergence, 500 g ai/ha): 0
Plant response rating, Pigweed [4, 20]: 0
Plant response rating, Barnyardgrass [5, 16]: 0
Plant response rating, Barnyardgrass [5, 17]: 20
Plant response rating, Barnyardgrass ([5]; 500 g ai/ha, scale 0 to 100): 45
Plant response rating, Barnyardgrass ([5]; 1000 g ai/ha, scale 0 to 100): 65
Plant response rating, Ryegrass, Italian [6, 18]: 0
Plant response rating, Ryegrass, Italian [6, 19]: 0
Ryegrass, Italian plant response rating (0 to 100 scale, 0 is no effect, 100 is complete control) ([6]; Postemergence, 500 g ai/ha): 40
Plant response rating, Ryegrass, Italian [6, 20]: 20
Plant response rating, Blackgrass [7, 15]: 20
Blackgrass plant response rating (0 to 100 scale, 0 is no effect, 100 is complete control) ([7]; 500 g ai/ha): 60
Plant response rating, Rice [8, 16]: 0
Plant response rating, Rice [8, 17]: 0
Plant response rating, Rice ([8]; 500 g ai/ha, scale 0 to 100): 0
Plant response rating, Rice ([8]; 1000 g ai/ha, scale 0 to 100): 15
Plant response rating, Ragweed [9, 18]: 0
Plant response rating, Ragweed [9, 19]: 0
Ragweed plant response rating (0 to 100 scale, 0 is no effect, 100 is complete control) ([9]; Postemergence, 500 g ai/ha): 20
Plant response rating, Ragweed [9, 20]: 0
Plant response rating, Wheat [10, 21]: 0
Wheat plant response rating (0 to 100 scale, 0 is no effect, 100 is complete control) [10]: 40
Plant response rating, Barnyardgrass [11, 22]: 40
Plant response rating, Barnyardgrass ([11]; Postemergence, 125 g ai/ha, 0 to 100 scale, 0 is no effect, 100 is complete control): 50
Barnyardgrass plant response rating (0 to 100 scale, 0 is no effect, 100 is complete control) ([11]; Postemergence, 500 g ai/ha): 80
Plant response rating, Barnyardgrass ([11]; preemergence, 500 g ai/ha, 0 to 100 scale, 0 is no effect and 100 is complete control): 90
Plant response rating, Ducksalad [12, 16]: 0
Plant response rating, Ducksalad [12, 17]: 45
Plant response rating, Ducksalad ([12]; 500 g ai/ha, scale 0 to 100): 45
Plant response rating, Ducksalad ([12]; 1000 g ai/ha, scale 0 to 100): 100
Plant response rating, Foxtail, Giant [13, 18]: 80
Plant response rating, Foxtail, Giant [13, 19]: 90
Foxtail, Giant plant response rating (0 to 100 scale, 0 is no effect, 100 is complete control) ([13]; Postemergence, 500 g ai/ha): 90
Plant response rating, Foxtail, Giant [13, 20]: 90
Plant response rating, Galium [14, 21]: 0
Galium plant response rating (0 to 100 scale, 0 is no effect, 100 is complete control) [14]: 50

O=C1NCC(c2cccc(C(F)(F)F)c2)C1C(=O)Nc1nc(C(F)(F)F)co1 (racemic) [Compound 114]
Plant response rating, Corn [1, 23]: 0
Plant response rating, Corn [1, 24]: 20
Plant response rating, Sedge, Umbrella [2, 16]: 0
Plant response rating, Sedge, Umbrella ([2]; 250 g ai/ha, scale 0 to 100): 0
Plant response rating, Sedge, Umbrella ([2]; 500 g ai/ha, scale 0 to 100): 0
Plant response rating, Sedge, Umbrella ([2]; 1000 g ai/ha, scale 0 to 100): 0
Plant response rating, Kochia [3, 18]: 0
Plant response rating, Kochia [3, 25]: 0
Kochia plant response rating (0 to 100 scale, 0 is no effect, 100 is complete control) ([3]; Postemergence, 500 g ai/ha): 20
Plant response rating, Kochia ([3]; preemergence, 500 g ai/ha): 0
Plant response rating, Pigweed [4, 18]: 0
Plant response rating, Pigweed [4, 25]: 0
Pigweed plant response rating (0 to 100 scale, 0 is no effect, 100 is complete control) ([4]; Postemergence, 500 g ai/ha): 0
Plant response rating, Pigweed ([4]; preemergence, 500 g ai/ha): 0
Plant response rating, Barnyardgrass [5, 16]: 0
Plant response rating, Barnyardgrass ([5]; 250 g ai/ha, scale 0 to 100): 0
Plant response rating, Barnyardgrass ([5]; 500 g ai/ha, scale 0 to 100): 0
Plant response rating, Barnyardgrass ([5]; 1000 g ai/ha, scale 0 to 100): 0
Plant response rating, Ryegrass, Italian [6, 18]: 0
Plant response rating, Ryegrass, Italian [6, 25]: 0
Ryegrass, Italian plant response rating (0 to 100 scale, 0 is no effect, 100 is complete control) ([6]; Postemergence, 500 g ai/ha): 60
Plant response rating, Ryegrass, Italian ([6]; preemergence, 500 g ai/ha): 30
Plant response rating, Blackgrass [7, 23]: 20
Plant response rating, Blackgrass [7, 24]: 30
Plant response rating, Rice [8, 16]: 0
Plant response rating, Rice ([8]; 250 g ai/ha, scale 0 to 100): 0
Plant response rating, Rice ([8]; 500 g ai/ha, scale 0 to 100): 0
Plant response rating, Rice ([8]; 1000 g ai/ha, scale 0 to 100): 0
Plant response rating, Ragweed [9, 18]: 0
Plant response rating, Ragweed [9, 25]: 0
Ragweed plant response rating (0 to 100 scale, 0 is no effect, 100 is complete control) ([9]; Postemergence, 500 g ai/ha): 0
Plant response rating, Ragweed ([9]; preemergence, 500 g ai/ha): 0
Plant response rating, Wheat [10, 26]: 0
Wheat plant response rating (0 to 100 scale, 0 is no effect, 100 is complete control) [10]: 20
Plant response rating, Barnyardgrass [11, 22]: 20
Plant response rating, Barnyardgrass ([11]; Postemergence, 125 g ai/ha, 0 to 100 scale, 0 no effect, 100 complete control): 20
Plant response rating, Barnyardgrass ([11]; Postemergence, 500 g ai/ha, 0 to 100 scale (0 no effect, 100 complete control)): 60
Plant response rating, Barnyardgrass ([11]; preemergence, 500 g ai/ha, 0 to 100 scale (0 no effect, 100 complete control)): 50
Plant response rating, Ducksalad [12, 16]: 20
Plant response rating, Ducksalad ([12]; 250 g ai/ha, scale 0 to 100): 30
Plant response rating, Ducksalad ([12]; 500 g ai/ha, scale 0 to 100): 70
Plant response rating, Ducksalad ([12]; 1000 g ai/ha, scale 0 to 100): 80
Plant response rating, Foxtail, Giant [13, 18]: 20
Plant response rating, Foxtail, Giant [13, 25]: 40
Foxtail, Giant plant response rating (0 to 100 scale, 0 is no effect, 100 is complete control) ([13]; Postemergence, 500 g ai/ha): 70
Plant response rating, Foxtail, Giant ([13]; preemergence, 500 g ai/ha): 70
Plant response rating, Galium [14, 26]: 0
Galium plant response rating (0 to 100 scale, 0 is no effect, 100 is complete control) [14]: 20
